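Exposure lasted 48 hours, with cells grown in 96-well plates and compounds tested at five concentrations. Here, GI50 denotes the concentration required for 50% inhibition of growth. The concentration for full growth arrest is given as TGI.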
Tests used:
Experiment in all cases: NCI anticancer screen, dose series, 48 h
EKVX NSCLC = tested on: EKVX NSCLC
UO-31 renal = tested on: UO-31 renal
RPMI-8226 leukemia = tested on: RPMI-8226 leukemia
CAKI-1 renal = tested on: CAKI-1 renal
RXF 393 renal = tested on: RXF 393 renal
HOP-92 NSCLC = tested on: HOP-92 NSCLC
SNB-75 CNS = tested on: SNB-75 CNS
A549 NSCLC = tested on: A549 NSCLC
ACHN renal = tested on: ACHN renal
HS 578T breast = tested on: HS 578T breast

SMILES	TGI (EKVX NSCLC) [µM]	TGI (UO-31 renal) [µM]	TGI (RPMI-8226 leukemia) [µM]	TGI (CAKI-1 renal) [µM]	TGI (RXF 393 renal) [µM]	TGI (HOP-92 NSCLC) [µM]	TGI (SNB-75 CNS) [µM]	TGI (A549 NSCLC) [µM]	TGI (ACHN renal) [µM]	GI50 (EKVX NSCLC) [µM]	GI50 (UO-31 renal) [µM]	GI50 (RPMI-8226 leukemia) [µM]	GI50 (CAKI-1 renal) [µM]	GI50 (RXF 393 renal) [µM]	GI50 (HOP-92 NSCLC) [µM]	GI50 (SNB-75 CNS) [µM]	GI50 (A549 NSCLC) [µM]	GI50 (ACHN renal) [µM]	TGI (HS 578T breast) [µM]
CC12CC3(C)CC(C)(C1)CC(N=[N+]=[N-])(C2)C3	> 100	> 100	> 100	> 100	> 100	> 100	> 100	> 100	> 100										
O=C(c1ccccc1)c1c(CC(O)c2cccnc2)n(C(=O)c2ccccc2)c2ccccc12 (configuration not stated)		32.6	44.2	70.6		30.9	32.4	> 100	82.7										
O=C1c2ccccc2N2OC3(N4CCCC4)CCCC3C12c1ccccc1 (configuration not stated)	> 100	> 100	> 100		> 100	> 100	> 100	> 100	> 100										
C=C(C)C1CC2C(C)=C(OC(C)=O)C1n1c(=O)c3cc4ccccc4cc3c(=O)n12 (configuration not stated)	> 100	> 100	> 81.3	> 100	> 90.9	> 100	> 85.5	> 100	> 100										
CC(C)N(C(C)C)[PH+]1O[PH+](N(C(C)C)C(C)C)O[PH+](N(C(C)C)C(C)C)O[PH+](N(C(C)C)C(C)C)O[PH+](N(C(C)C)C(C)C)O1.[C-]#[O+].[C-]#[O+].[C-]#[O+].[C-]#[O+].[C-]#[O+].[C-]#[O+].[C-]#[O+].[Cr].[Cr] (configuration not stated)	> 100	> 100	> 100	> 100	> 100	> 100	> 100	> 100	> 100	> 100	> 100	> 100	> 100	> 100	> 100	75.4	> 100	> 100	
CC(C)(C)OC(=O)NCC(C#N)CNC(=O)OC(C)(C)C	> 100	> 100	> 100		> 100	> 100		> 100	> 100										> 100
O=[N+]([O-])c1ccc(N=Nc2c(O)[nH]c3ccc([N+](=O)[O-])cc23)cc1	> 100	59.8	36.2	> 100	36.5	25.6	> 100	32.4	76.4										
COc1ccc(C(C2=C(C)C(=O)c3ccccc3C2=O)c2ccc(C(C)C)cc(=O)c2O)cc1 (configuration not stated)		5.12	> 100	7.91		10.3	6.47	13.4	9.96										
O=C(C(=O)c1ccc(Cc2ccc(C(=O)C(=O)c3ccccc3)cc2)cc1)c1ccccc1	> 100	> 100		> 100	> 100	> 100	> 100	> 100	> 100										
CC(=O)N(CCN)CCN	> 100	> 10	> 10	> 10	> 10	> 10	> 100	> 10	> 100										
